Measured values: patent US20260199464A1, “COMPOSITIONS AND METHODS FOR ENHANCING CAR-T CELL PERFORMANCE AND FOR CANCER IMMUNOTHERAPY” (The Regents of the University of California, priority 2022, published 2026)

Columns and labels:
[1] = system: CD19 CAR T cell; test: ZAA combined with CD19 CAR T cell treatment of established solid tumors (FIG. 9); assay type: in vivo, mice
From the text: FIG. 9 graphically illustrates data showing that ZAA can be combined with CAR T cell treatment of established solid tumors to increase the ability of CAR T cells to accumulate intratumorally. Tumor-bearing mice received tumor-specific CAR T cells in combination with Zaragozic Acid A. Tumor cells contained the surface protein CD19, which is recognized by the CAR anti-CD19 on the CD8 T cell (CD19 CAR T cell).

[2] = Dependence of antitumor actions of ZAA on the immune system (FIG. 6); assay type: in vivo
[3] = system: B16-F10 tumors; test: ZAA combined with anti-PD1 antibody, B16-F10 tumors implanted s.c. in B6 mice (FIG. 7, FIG. 8); assay type: in vivo
Experimental: FIG. 7 graphically illustrates data showing that tumor Growth Curves in B16-F10 tumors implanted subcutaneously (s.c.) in B6 mice. Tumor-bearing mice were treated with a combination of Zaragozic Acid A and anti-PD1 antibody.
FIG. 8 graphically illustrates data showing that ZAA synergizes with anti-PD1 therapy. Tumor-bearing mice were treated with a combination of Zaragozic Acid A and anti-PD1 antibody.
At day 6 after tumor injection, the mice were randomized and treated every other day with ZAA (Santa Cruz Biotechnology) or vehicle control by alternating intravenous ([…]) and intraperitoneal ([…]) injections until day 16. For combination therapy with anti-PD1 (programmed cell death protein 1 (PD-1)) antibody, ZAA was administered with the same schedule, and three consecutive treatments of anti-PD1 (InVivoMab anti-mouse PD-1 (CD279), BioXCell, BE0033-2) at 200 μg/mouse were delivered IP on days 9, 10, and 11 after tumor injection. Isotype control for Syrian IgG was used (InVivoMAb polyclonal Syrian hamster IgG, BioXCell). For CD8-depleting experiments in combination with ZAA, anti-CD8a Ab (2.43 BioXCell) was administered intraperitoneally at a dose of 200 μg/mouse starting 2 days prior to tumor implantation for three consecutive days (−2, −1, 0), followed by 2 additional doses of 100 μg/mouse on days 4 and 8, and ZAA treatment scheduled was started at day 4 after tumor implantation. Isotype control for Rat IgG2 was used (InVivoMAb rat IgG2a isotype control, anti-trinitrophenol, BioXCell).

[4] = system: B16-GP33-41 melanoma tumors; test: ZAA combined with anti-PD-1 in B16-GP33-41 melanoma tumors; assay type: in vivo, mice; conditions: ZAA combined with anti-PD-1 treatment
From the text: (§1) For adoptive therapy experiments, 5×10^5 B16-GP33-41 cells or MC38-GP33-41, which were verified Mycoplasma negative by PCR, and authenticated by in vitro killing assays, were transplanted subcutaneously into the right flank of wild-type B6 mice. After tumors became palpable, 7-8 days after transplantation, in vitro activated and expanded P14 CD8 T cells were transferred intravenously. For comparison of TIL accumulation in a mixed transfer setting, naive P14 CD8 T cells were activated, transduced and expanded with 50 U/mL of hIL-2 for 2-3 days; cells transduced with control constructs (Cd19 shRNAmir) or experimental constructs (Srebf2 shRNAmir) were mixed 1:1 and 1×10^6 P14 cells were transferred intravenously. For efficacy studies, transduced cells were expanded for 5-6 days; transduced cells were then sorted, and 1×10^6-2.5×10^6 cells were transferred intravenously into mice with established MC38-GP33-41 or B16-GP33-41 tumors. Tumors were monitored daily, and mice with ulcerated tumors or tumors exceeding 400 mm^2 were euthanized, in accordance with Univ. Calif. San Diego (UCSD) Institutional Animal Care and Use Committee (IACUC).
At day 6 after tumor injection, the mice were randomized and treated every other day with ZAA (Santa Cruz Biotechnology) or vehicle control by alternating intravenous ([…]) and intraperitoneal ([…]) injections until day 16. […]

[5] = system: MC38-GP33-41 tumors; test: ZAA treatment of mice implanted with MC38-GP33-41 tumors, with or without CD8 T cell depletion; assay type: in vivo
From the text: as §1
At day 6 after tumor injection, the mice were randomized and treated every other day with ZAA (Santa Cruz Biotechnology) or vehicle control by alternating intravenous ([…]) and intraperitoneal ([…]) injections until day 16. For combination therapy with anti-PD1 (programmed cell death protein 1 (PD-1)) antibody, ZAA was administered with the same schedule, and three consecutive treatments of anti-PD1 (InVivoMab anti-mouse PD-1 (CD279), BioXCell, BE0033-2) at 200 μg/mouse were delivered IP on days 9, 10, and 11 after tumor injection. Isotype control for Syrian IgG was used (InVivoMAb polyclonal Syrian hamster IgG, BioXCell). […]

[6] = system: P14 CD8 T cells; assay type: in vivo, mice
[7] = combination of Zaragozic Acid A and anti-PD1 antibody, B16-F10 s.c.
[8] = ZAA vs vehicle, MC38-GP33-41 tumors

## C=C(CCC12O[C@H](C(=O)O)[C@@](O)(C(=O)O)C(C(=O)O)(O1)[C@H](OC(=O)/C=C/[C@@H](C)C[C@@H](C)CC)[C@H]2O)[C@@H](OC(C)=O)[C@H](C)Cc1ccccc1 (stereo partly shown) [ZAA, zaragozic acid A]
[1]; FIG. 9
  interaction with CD19 CAR T cell therapy: synergizes
[1]; tumor-specific CD19 CAR T cells in combination with ZAA, CD19-bearing tumor cells
  ability of CAR T cells to accumulate intratumorally: increase
[2]
  antitumor actions, dependence on the immune system: depend on the immune system
[3]; FIG. 8, independent tumor growth curves from FIG. 7
  interaction with anti-PD1 therapy: synergizes
[3]; [7]
  treatment of established tumors, efficacy of the combination: effectively
  treatment of established tumors, safety of the combination: safely
[4]
  control of B16-GP33-41 melanoma tumors: greater control
[5]; ZAA in combination with CD8 T cell depletion
  dependence of the antitumor effect on CD8 T cells: CD8-dependent
[5]; [8]
  survival of mice: improved
  tumor growth: reduced

## CC[C@H](C)C(=O)O[C@H]1C[C@@H](C)C=C2C=C[C@H](C)[C@H](CC[C@@H]3C[C@@H](O)CC(=O)O3)[C@H]21 [lovastatin]
[6]; day 7 of infection, compared to the control group (vehicle)
  accumulation of P14 CD8 T cells responding to LCMV in the SI: impaired
[6]; day 21 after LCMV infection
  SI TRM: sustained loss
  accumulation of memory T cells in the spleen: impaired accumulation
